# Source: ChEMBL document CHEMBL5729275 (2022)
# Assay: RSV-A Assay : Hep-2 cells, (originally derived from tumors grown in irradiated-cortisonised weanling rats that had been injected with epidermoid carcinoma tissue from a person's larynx, but later found to be indistinguishable from HeLa cells by PCR DNA analysis), were used for the culturing of genotype A, “Long” strain RSV. Flasks were inoculated with RSV and viral stocks were collected once cytopathic effect (CPE) was greater than 90%. Viral stocks in 25% sucrose media were snap frozen using liquid nitrogen to increase viral stability. Viral stock titers were quantified by tissue culture infectious dose 50% (TCID50) using 8,000 cells per well and 3-fold viral dilutions across a 96-well plate, cultured for 4 days. Viral stock titers were also quantified by a plaque forming unit assay, as described elsewhere.Following extensive parameter testing, the final assay is run as follows: Hep-2 cells are seeded into the inner 60 wells of a 96-well plate at 8,000 cells per well in a volume of 50 μL using Growth Media (DMEM without phenol red, 1% L-Glut, 1% Penn/Strep, 1% nonessential amino acids, 10% heat-inactivated FBS). 2-fold serial dilutions of control and test compounds are added to the wells in duplicate in a total volume of 25 μL. Viral stock is then added to the wells at a multiplicity of infection (MOI) of 0.1 in a volume of 25 μL, bringing the total volume of each well to 100 μL. The MOI is calculated using the PFU/mL, or TCID50 if unavailable. Each 96-well plate has a control column of 6 wells with cells and virus but no compound (negative control, max CPE), a column with cells but no compound or virus (positive control, minimum CPE), and a column with no cells or virus or compound (background plate/reagent control). The control wells with cells but no virus are given an additional […], of growth media containing an equal quantity of sucrose as those wells receiving the viral stock in order to keep consistent in media and volume conditions. The outer wells of the plate are filled with 125 μL of moat media (DMEM, 1% Penn/Strep) to act as a thermal and evaporative moat around the test wells. Following a 5-day incubation period, the plates are read using ATPlite (50 uL added per well), which quantifies the amount of ATP (a measure of cell health) present in each well. Assay plates are read using the Envision luminometer.
row,SMILES,EC50
1,COc1cc(F)c(C(=O)NC[C@](O)(c2cc3c(c(-c4ccc(F)cc4)n2)OC[C@@]3(N)C(F)(F)F)C(F)(F)F)cc1OC,> 200 nM
2,N[C@@]1(C(F)(F)F)COc2c1cc([C@@](O)(CNC(=O)c1cc(OC3CC3)c3ncccc3c1)C1CC1)nc2-c1ccc(F)cc1,< 200 nM
3,COc1cc(C(=O)NC[C@](C)(O)c2cc3c(c(-c4ccc(F)c(Cl)c4)n2)OC[C@@]3(N)C(F)(F)F)ccc1OC1CC1,< 200 nM
4,COc1ccc2nc(C(=O)NC[C@](O)(c3cc4c(c(-c5ccc(F)cc5)n3)OC[C@@]4(N)C(F)(F)F)C(F)(F)F)cc(OC)c2c1,> 200 nM
5,COC(=O)N[C@@]1(C(F)(F)F)COc2c1cc([C@@](C)(O)CNC(=O)c1ccc(OC3CC3)c(OC)c1)nc2-c1ccc(F)cc1,< 200 nM
6,COc1cc(C(=O)NC[C@](O)(c2cc3c(c(-c4ccc(F)c(F)c4)n2)OC[C@@]3(N)C(F)(F)F)C2CC2)ccc1OC1CC1,< 200 nM
7,COC(=O)N[C@@]1(C(F)(F)F)COc2c1cc([C@@](O)(CNC(=O)c1ccc(OC3CC3)c(OC)c1)C(F)(F)F)nc2-c1ccc(F)cc1,> 200 nM
8,COc1cc(C(=O)NC[C@](O)(c2cc3c(c(-c4ccc(F)cc4)n2)OC[C@@]3(N)C(F)(F)F)C(F)(F)F)ccc1OCCO,> 200 nM
9,COc1cc(C(=O)NC[C@](C)(O)c2cc3c(c(-c4ccc(F)cc4)n2)OC[C@@]3(NS(=O)(=O)C(C)(C)C)C(F)(F)F)cc2cccnc12,> 200 nM
10,COc1cc(C(=O)NC[C@@](O)(CO)c2cc3c(c(-c4ccc(F)cc4)n2)OC[C@@]3(N)C(F)(F)F)ccc1OC1CC1,< 200 nM
11,COc1cccc2cc(C(=O)NC[C@](O)(c3cc4c(c(-c5ccc(F)cc5)n3)OC[C@@]4(N)C(F)(F)F)C(F)(F)F)cnc12,> 200 nM
12,N[C@@]1(C(F)(F)F)COc2c1cc([C@@](O)(CNC(=O)c1cc(OC3CC3)c3ncccc3c1)C1CC1)nc2-c1ccc(F)c(Cl)c1,< 200 nM
13,N[C@@]1(C(F)(F)F)COc2c1cc([C@@](O)(CNC(=O)c1cc(OC3CC3)c3nc(Cl)ccc3c1)C1CC1)nc2-c1ccc(F)cc1,< 200 nM
14,COc1cc(C(=O)NC[C@](O)(c2cc3c(c(-c4ccc(F)cc4)n2)OC[C@@]3(N)C(F)(F)F)C(F)(F)F)cc2cccnc12,< 200 nM
15,COc1cc(C(=O)NC[C@@](O)(c2cc3c(c(-c4ccc(F)cc4)n2)OC[C@]3(N)C(F)(F)F)C(F)(F)F)ccc1OCCO,> 200 nM
16,COC[C@](O)(CNC(=O)c1cc(OC2CC2)c2ncccc2c1)c1cc2c(c(-c3ccc(F)cc3)n1)OC[C@@]2(N)C(F)(F)F,< 200 nM
17,COc1cc(C(=O)NC[C@](O)(c2cc3c(c(-c4ccc(F)cc4)n2)OC[C@]3(N)C(F)(F)F)C(F)(F)F)cc2cccnc12,< 200 nM
18,COc1cc(C(=O)NC[C@](O)(c2cc3c(c(-c4ccc(F)cc4)n2)OC[C@@]3(N)C(F)(F)F)C(F)(F)F)cc(F)c1OC1CC1,> 200 nM
19,N[C@@]1(C(F)(F)F)COc2c1cc([C@@](O)(CNC(=O)c1ccc(OC3CC3)c(OC3CC3)c1)C1CC1)nc2-c1ccc(F)c(F)c1,< 200 nM
20,COCCOc1ccc(C(=O)NC[C@](O)(c2cc3c(c(-c4ccc(F)cc4)n2)OC[C@@]3(N)C(F)(F)F)C(F)(F)F)cc1OC,> 200 nM
21,COc1cc(C(=O)NC[C@](O)(c2cc3c(c(-c4ccc(F)cc4)n2)OC[C@@]3(N)C(F)(F)F)C2CC2)ccc1OC1CC1,< 200 nM
22,COc1cc(C(=O)NC[C@](O)(c2cc3c(c(-c4ccc(F)cc4)n2)OC[C@@]3(N)C(F)(F)F)C(F)(F)F)ccc1C(F)(F)F,> 200 nM
23,C[C@](O)(CNC(=O)c1ccc(OC2CC2)c(OC2CC2)c1)c1cc2c(c(-c3ccc(F)cc3)n1)OC[C@@]2(N)C(F)(F)F,< 200 nM
24,COc1cc(C(=O)NC[C@](O)(c2cc3c(c(-c4ccc(F)cc4)n2)OC[C@@]3(NC(=O)COC(C)=O)C(F)(F)F)C(F)(F)F)ccc1OC1CC1,< 200 nM
25,COc1cc(C(=O)NC[C@H](O)c2cc3c(c(-c4ccc(F)cc4)n2)OC[C@@]3(N)C(F)(F)F)ccc1OC1CC1,> 200 nM
26,COc1cc(C(=O)NC[C@](O)(c2cc3c(c(-c4ccc(F)cc4)n2)OC[C@]3(N)C(F)(F)F)C(F)(F)F)ccc1OCCO,> 200 nM
